The values that follow come from patent US20230167127A1, “COMPOUNDS AND THEIR USE IN THE TREATMENT OF BACTERIAL INFECTION” (Hoffmann-La Roche Inc., priority 2020, published 2023).

This test has as its system Escherichia coli ATCC 25922. The test is described as follows: 50% growth inhibitory concentration (IC50) determination, Iso-Sensitest broth dilution. The class given is cell-based. As to conditions: strain Escherichia coli ATCC 25922, 10-point broth dilution, optical density at 600 nm over 16 h, read-out: Escherichia coli growth inhibition IC50. The essentials:
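10-point twofold Iso-Sensitest broth dilution (e.g. 50 to 0.097 μM final) with DMSO stocks, incubated at 35±2° C. Growth followed by OD 600 nm every 20 min over 16 h; IC50 derived from growth inhibition during logarithmic phase.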
Background: In broth dilution the organism is exposed to a series of concentrations in liquid medium.

[1] abbreviates: Escherichia coli, ATCC25922, 16 h.

Like-named read-outs stand apart in the source and are kept apart here.

In general, IC50 refers to the concentration needed to halve the response being measured.

For `Cc1ncc(F)c2c1CC(NCCCc1cn(-c3cnc4c(n3)NC(=O)CO4)c(=O)o1)C2` (single isomer, unassigned; enantiomer b) [Example 368, 6-[5-[3-[(4-Fluoro-1-methyl-6,7-dihydro-5H-cyclopenta[c]pyridin-6-yl)amino]propyl]-2-oxo-1,3-oxazol-3-yl]-4H-pyrazino[2,3-b][1,4]oxazin-3-one, Enantiomer B], the IC50 is below 0.0977 µM. On to `N#Cc1cccc2c1CC(NC1CCC3(CC1)CN(c1ccc4c(n1)NC(=O)CO4)C(=O)O3)C2` (single isomer, unassigned; isomer b) [Example 40, 2-[[2-oxo-3-(3-oxo-4H-pyrido[3,2-b][1,4]oxazin-6-yl)-1-oxa-3-azaspiro[4.5]decan-8-yl]amino]-2,3-dihydro-1H-indene-4-carbonitrile. Isomer B; formic acid], for which the IC50 turned out to be 0.153 µM.

As for `Cc1nc(C#N)c2c(c1F)CC(CNCCC1CN(c3cnc4c(n3)NC(=O)CO4)C(=O)O1)C2` (stereo not shown) [Example 363, 4-fluoro-3-methyl-6-[[2-[2-oxo-3-(3-oxo-4H-pyrazino[2,3-b][1,4]oxazin-6-yl)-1,3-oxazolidin-5-yl]ethylamino]methyl]-6,7-dihydro-5H-cyclopenta[c]pyridine-1-carbonitrile; formic acid], under setting [1], the IC50 was below 0.0977 µM. The same measure, in the same setting: the result for `N#Cc1cccc2c1CC(CNCCC1CN(c3cnc4c(c3)NC(=O)CO4)C(=O)O1)C2` (stereo not shown) [Example 46, 2-[[2-[2-oxo-3-(2-oxo-1H-pyrido[2,3-b][1,4]oxazin-7-yl)-1,3-oxazolidin-5-yl]ethylamino]methyl]-2,3-dihydro-1H-indene-4-carbonitrile] reads 0.356 µM. As for `N#Cc1cccc2c1CC(CN1CCC3(CC1)CN(c1ccc4c(n1)NC(=O)CO4)C(=O)O3)C2N` (racemic) [Example 131, rac-1,2-trans-1-amino-2-[[2-oxo-3-(3-oxo-4H-pyrido[3,2-b][1,4]oxazin-6-yl)-1-oxa-3,8-diazaspiro[4.5]decan-8-yl]methyl]-2,3-dihydro-1H-indene-4-carbonitrile; formic acid], the IC50 under setting [1] stood at 0.24 µM.

As for `O=C1COc2ncc(N3CC(CCNCC4Cc5c(F)cc(OCc6cc[nH]n6)c(F)c5C4)OC3=O)nc2N1` (stereo not shown) [Example 395, 6-[5-[2-[[4,7-difluoro-5-(1H-pyrazol-3-ylmethoxy)-2,3-dihydro-1H-inden-2-yl]methylamino]ethyl]-2-oxo-1,3-oxazolidin-3-yl]-4H-pyrazino[2,3-b][1,4]oxazin-3-one], the IC50 under setting [1] turned out to be 0.166 µM. Same read-out and setting: the result for `CN(C)C(=O)COc1cc(F)c2c(c1)CC(CNCCC1CN(c3ccc4c(n3)NC(=O)CO4)C(=O)O1)C2` (stereo not shown) [Example 77, 2-[[7-fluoro-2-[[2-[2-oxo-3-(3-oxo-4H-pyrido[3,2-b][1,4]oxazin-6-yl)-1,3-oxazolidin-5-yl]ethylamino]methyl]-2,3-dihydro-1H-inden-5-yl]oxy]-N,N-dimethylacetamide] reads 0.393 µM; that for `CNC(=O)COc1cc(F)c2c(c1)CC(CNCCC1CN(c3ccc4c(n3)NC(=O)CS4)C(=O)O1)C2` (stereo not shown) [Example 74, 2-[[7-fluoro-2-[[2-[2-oxo-3-(3-oxo-4H-pyrido[3,2-b][1,4]thiazin-6-yl)-1,3-oxazolidin-5-yl]ethylamino]methyl]-2,3-dihydro-1H-inden-5-yl]oxy]-N-methylacetamide: formic acid], 0.118 µM; that for `Cc1nnc(C)c2c1CC(CNCCC1CN(c3cnc4c(n3)NC(=O)CO4)C(=O)O1)C2` (stereo not shown) [Example 283, 6-[5-[2-[(1,4-dimethyl-6,7-dihydro-5H-cyclopenta[d]pyridazin-6-yl)methylamino]ethyl]-2-oxo-1,3-oxazolidin-3-yl]-4H-pyrazino[2,3-b][1,4]oxazin-3-one], 0.888 µM.

Turning to `O=C1COc2ncc(N3CC(CCNCC4Cc5cc(OCCN6C(=O)CCC6=O)cc(F)c5C4)OC3=O)nc2N1` (stereo not shown) [Example 345], the IC50 under setting [1] is 0.659 µM. Take `Cc1nc(OCC2CNC(=O)C2)c(C)c2c1CC(CNCCC1CN(c3ccc4c(n3)NC(=O)CO4)C(=O)O1)C2` (stereo not shown) [Example 102, 6-[5-[2-[[1,4-dimethyl-3-[(5-oxopyrrolidin-3-yl)methoxy]-6,7-dihydro-5H-cyclopenta[c]pyridin-6-yl]methylamino]ethyl]-2-oxo-1,3-oxazolidin-3-yl]-4H-pyrido[3,2-b][1,4]oxazin-3-one]: under setting [1], the IC50 turned out to be 0.871 µM. Consider `Cc1ncc(F)c2c1CC(CN1CCC3(CC1)CN(c1ccc4c(n1)NC(=O)CO4)C(=O)O3)C2` (stereo not shown) [Example 72, 6-[8-[(4-fluoro-1-methyl-6,7-dihydro-5H-cyclopenta[c]pyridin-6-yl)methyl]-2-oxo-1-oxa-3,8-diazaspiro[4.5]decan-3-yl]-4H-pyrido[3,2-b][1,4]oxazin-3-one], for which the IC50 under setting [1] worked out at 0.0697 µM. Same read-out and setting: as for `N#Cc1cccc2c1CC(CCN1CC3(C1)CN(c1ccc4c(n1)NC(=O)CO4)C(=O)O3)C2` (stereo not shown) [Example 33, 2-[2-[6-oxo-7-(3-oxo-4H-pyrido[3,2-b][1,4]oxazin-6-yl)-5-oxa-2,7-diazaspiro[3.4]octan-2-yl]ethyl]-2,3-dihydro-1H-indene-4-carbonitrile], the figure is below 0.0977 µM. Same read-out and setting: as for `Cc1nc2c(c3c1CC(CNCCC1CN(c4cnc5c(n4)NC(=O)CO5)C(=O)O1)C3)CCN2C` (stereo not shown) [Example 424, 6-[5-[2-[(5,8-Dimethyl-5,7-diazatricyclo[7.3.0.0^2,6]dodeca-1,6,8-trien-11-yl)methylamino]ethyl]-2-oxo-1,3-oxazolidin-3-yl]-4H-pyrazino[2,3-b][1,4]oxazin-3-one], the figure is 0.227 µM. With `O=C1COc2ccc(N3CC(CCNCC4Cc5c(Cl)cccc5C4O)OC3=O)nc2N1` (racemic) [Example 231, 6-[2-Oxo-5-[2-[[rac-1,2-cis-4-chloro-1-hydroxy-2,3-dihydro-1H-inden-2-yl]methylamino]ethyl]-1,3-oxazolidin-3-yl]-4H-pyrido[3,2-b][1,4]oxazin-3-one], the IC50 came to 0.176 µM.

Take `O=C1COc2ncc(N3CC(CC(O)CNC4Cc5cccc(F)c5C4)OC3=O)nc2N1` (single isomer, unassigned; isomer a) [Example 83, 6-[5-[3-[(4-fluoro-2,3-dihydro-1H-inden-2-yl)amino]-2-hydroxypropyl]-2-oxo-1,3-oxazolidin-3-yl]-4H-pyrazino[2,3-b][1,4]oxazin-3-one, Isomer A; formic acid]: the IC50 was below 0.0977 µM.

As for `Cc1nc2c(c3c1CC(CNCCC1CN(c4ccc5c(n4)NC(=O)CO5)C(=O)O1)C3)CCN2C` (stereo not shown) [Example 416, 6-[5-[2-[(5,8-dimethyl-5,7-diazatricyclo[7.3.0.0^2,6]dodeca-1,6,8-trien-11-yl)methylamino]ethyl]-2-oxo-1,3-oxazolidin-3-yl]-4H-pyrido[3,2-b][1,4]oxazin-3-one], under setting [1], the IC50 came to 0.0951 µM. Turning to `NC1(CNCCC2CN(c3ccc4c(n3)NC(=O)CO4)C(=O)O2)Cc2cccc(Cl)c2C1` (stereo not shown) [Example 240, 6-[5-[2-[(2-Amino-4-chloro-1,3-dihydroinden-2-yl)methylamino]ethyl]-2-oxo-1,3-oxazolidin-3-yl]-4H-pyrido[3,2-b][1,4]oxazin-3-one; formic acid], under setting [1], the IC50 came to 0.278 µM. The same measure, in the same setting: as for `NC1c2cccc(Cl)c2CC1CNCCC1CN(c2cnc3c(n2)NC(=O)CO3)C(=O)O1` (racemic) [Example 136, 6-[2-oxo-5-[2-[[rac-1,2-trans-1-amino-4-chloro-2,3-dihydro-1H-inden-2-yl]methylamino]ethyl]-1,3-oxazolidin-3-yl]-4H-pyrazino[2,3-b][1,4]oxazin-3-one; formic acid], the figure is 0.112 µM; as for `Cc1ncc(F)c2c1CC(CNCCC1CN(c3ccc4c(n3)NC(=O)CO4)C(=O)O1)C2` (stereo not shown) [Example 36, 6-[5-[2-[(4-fluoro-1-methyl-6,7-dihydro-5H-cyclopenta[c]pyridin-6-yl)methylamino]ethyl]-2-oxo-1,3-oxazolidin-3-yl]-4H-pyrido[3,2-b][1,4]oxazin-3-one], below 0.0977 µM; as for `N[C@@H]1c2cccc(Cl)c2C[C@H]1CNCC[C@H]1CN(c2cnc3c(n2)NC(=O)CO3)C(=O)O1` [Example 402, 6-[(5S)-5-[2-[[(1S,2S)-1-amino-4-chloro-2,3-dihydro-1H-inden-2-yl]methylamino]ethyl]-2-oxo-1,3-oxazolidin-3-yl]-4H-pyrazino[2,3-b][1,4]oxazin-3-one], below 0.0977 µM.

`CC(C)(N)COc1cc(C#N)c2c(c1)CC(CNCCC1CN(c3cnc4c(n3)NC(=O)CO4)C(=O)O1)C2` (stereo not shown) [Example 204, 6-(2-amino-2-methylpropoxy)-2-(((2-(2-oxo-3-(3-oxo-3,4-dihydro-2H-pyrazino[2,3-b][1,4]oxazin-6-yl)oxazolidin-5-yl)ethyl)amino)methyl)-2,3-dihydro-1H-indene-4-carbonitrile]: the IC50 under setting [1] is below 0.0977 µM. In the case of `CNCCOc1nc(C)c2c(c1C)CC(CNCCC1CN(c3ccc4c(n3)NC(=O)CO4)C(=O)O1)C2` (stereo not shown) [Example 173, 6-[5-[2-[[1,4-dimethyl-3-[2-(methylamino)ethoxy]-6,7-dihydro-5H-cyclopenta[c]pyridin-6-yl]methylamino]ethyl]-2-oxo-1,3-oxazolidin-3-yl]-4H-pyrido[3,2-b][1,4]oxazin-3-one], the IC50 under setting [1] was determined as 0.194 µM. Same read-out and setting: as for `NC1c2cccc(Cl)c2CC1CNCCc1cn(-c2ccc3c(n2)NC(=O)CO3)c(=O)o1` (racemic) [Example 170, 6-[2-oxo-5-[2-[[rac-1,2-trans-1-amino-4-chloro-2,3-dihydro-1H-inden-2-yl]methylamino]ethyl]-1,3-oxazol-3-yl]-4H-pyrido[3,2-b][1,4]oxazin-3-one], the figure is below 0.0977 µM. On the same count and under the same terms, as for `CNC(=O)COc1cc(F)c2c(c1)CC(CNCCC1CN(c3cnc4c(n3)NC(=O)CO4)C(=O)O1)C2` (stereo not shown) [Example 310, 2-[[7-fluoro-2-[[2-[2-oxo-3-(3-oxo-4H-pyrazino[2,3-b][1,4]oxazin-6-yl)-1,3-oxazolidin-5-yl]ethylamino]methyl]-2,3-dihydro-1H-inden-5-yl]oxy]-N-methylacetamide; formic acid], the figure is 0.18 µM.
